Patent publication US11655244B2, “Carbazole compounds and methods of use thereof” (GSNO Therapeutics, Inc, priority 2017, dated 2023)

Legend:
[1] = system: Bleomycin-induced idiopathic pulmonary fibrosis model in male C57BL/6 mice; assay: Bleomycin-induced idiopathic pulmonary fibrosis model; type: in vivo; details: 100 mg/kg, p.o., b.i.d., from day 14 to 28
Method: Compound 17 was made-up fresh every 4 days. A required amount of the test compound was weighed in a glass vial and the purity factor was calculated. A stock solution of 1 mg/ml (10 mg/kg) was made in distilled water (pH 8) and the subsequent 3 and 1 mg/kg doses (concentrations) were obtained by serial dilution of the 1 mg/ml stock solution. A clear and transparent solution was observed. Animals were dosed with Compound 17 at 1 mg/kg, 3 mg/kg and 10 mg/kg, i.p (intraperitoneal), once daily from day 14 to 28.
Pirfenidone was weighed in a glass vial and suspended in 0.5% methyl cellulose to obtain a 10 mg/ml formulation. A clear homogenous suspension was observed. Animals were dosed with Pirfenidone at 100 mg/kg, p.o., b.i.d., from day 14 to 28.

IL-6 = assay: LPS/cytokine assay (mouse inflammation assay), IL-6; type: in vivo, CD-1 male mice; details: CD-1 male mice; IP or IV; cytokine typically 6 hrs after LPS
Method: Table 2b also includes additional biological data of compounds described herein. The LPS/cytokine Assay was carried out in CD-1 male mice. The assay measured the level of various cytokines, including IL-6, IL-17, and IL-23, after induction by bacterial liposaccharide (LPS). Compounds were dosed by IP or IV routes of administration at varying times before and after LPS and the cytokine concentrations were measured at varying times, typically 6 hrs, after LPS by standard methods using ELISA kits.
BIOLOGICAL TESTING: Compounds 10 and 17 from Table 1 were tested in a mouse inflammation assay. Briefly, CD-1 mice were dosed with compound, 12 hrs before injecting mice I.P. with the potent cytokine inducer, bacterial lipopolysaccharide (LPS). The mice were euthanized 6 hrs after the LPS was injected and their serum prepared by standard methods. The concentration of IL-6 in the serum of each experimental animal was measured using an IL-6 ELISA kit from Enzo. The compounds tested were active.
This LPS/cytokine assay was carried out in healthy mice and measured the level of cytokine IL-6, IL-17, and 23 induction by LPS. Compounds are dosed (either orally (“p.o.”) or intravenously (“i.v.”) at varying times before and after LPS, and the cytokines are measured at varying times after LPS. The effect of the tested compounds (Table 5) on IL-6 release is shown in FIG. 7. The effect of the tested compounds (Table 6) on IL-17 an IL-23 release is shown in FIG. 11 and FIG. 12, respectively.

GSNOR enzyme [2] = biological target: T1, GSNOR enzyme (Homo sapiens, UniProt P11766); assay: GSNOR inhibition assay (rate of NADH consumption, 340 nm absorbance); type: biochemical; details: Table 2b; test compound 20 uM; read-out: % GSNOR Inhibition at 20 uM
T1 sequence (P11766 whole entry): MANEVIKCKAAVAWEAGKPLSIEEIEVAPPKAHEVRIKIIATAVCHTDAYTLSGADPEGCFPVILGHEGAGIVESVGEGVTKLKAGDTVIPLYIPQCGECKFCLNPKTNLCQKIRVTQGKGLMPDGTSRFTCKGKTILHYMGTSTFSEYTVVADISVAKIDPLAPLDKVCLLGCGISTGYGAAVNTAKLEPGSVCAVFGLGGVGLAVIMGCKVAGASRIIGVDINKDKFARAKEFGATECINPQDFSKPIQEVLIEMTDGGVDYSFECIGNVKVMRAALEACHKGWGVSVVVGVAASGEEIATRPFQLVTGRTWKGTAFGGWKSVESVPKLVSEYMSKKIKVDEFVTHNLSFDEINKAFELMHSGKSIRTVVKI
Method: The following compounds were also prepared based on the methods described herein, using the appropriate starting materials. Table 2a and Table 2b also provides the % GSNOR inhibition at 20 μM of compounds described herein. […] The buffer was 100 mM phosphate buffer (pH 7.4.) The rate of NADH consumption for each well was determined by ultraviolet spectroscopy. Plates were read on a Molecular Devices Spectra Max UV/Visible Spectrophotometer/plate reader and the change in 340 nm absorbance at 25° C. was recorded for each well at 10 sec intervals over the duration of the recording period (2˜5 minutes). The rate was measured from the linear portion of the curve. Final test compound concentration was 20 μM. The mean % inhibition from 3 test compound wells and 5 control wells was measured as the percentage of the mean no compound+enzyme−the mean no enzyme, no compound control.

GSNOR enzyme [3] = biological target: T1, GSNOR enzyme; assay: as above; type: biochemical; details: Table 2b; read-out: IC50 Micromolar

SMILES | pulmonary fibrosis (Ashcroft score and percentage collagen proportionate area) vs disease control [1] | LPS/IL6 Lowest tested active (IL-6) [mg/kg] | inhibition at 20 µM (GSNOR enzyme [2]) [%] | IC50 (GSNOR enzyme [3]) [nM]
Cc1ccc(=O)n(-c2ccccc2)c1 [Pirfenidone, reference compound] | notable mitigation of pulmonary fibrosis | – | – | –
Cc1cc(C(N)=O)ccc1-n1c2ccc(-n3ccnc3)cc2c2ccc(CCC(=O)O)cc21 [Compound 21] | – | 0.3 | 93.6 | 1000 to 5000
